From PubChem BioAssay AID256 (DTP/NCI, 2004)
Inconclusive results and toxic doses are left out. How the source made its calls: active means survival T/C of 150% or more; inactive means T/C below 125% in these data.

System: CD2F1 mice, L1210 leukemia ip, survival T/C
Assay: NCI In Vivo Anticancer Drug Screen. Data for tumor model L1210 Leukemia (intraperitoneal) in CD2F1 (CDF1) mice
Conditions: higher = longer survival
In short: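 Vehicle-treated tumor-bearing mice served as controls (C) for compound-treated mice (T). Reported figure is T divided by C.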

[1] = endpoint: mean survival time, dose: 100.0 mg/kg/injection, schedule: Q04DX003 (ip), vehicle: saline with Tween-80
[2] = endpoint: mean survival time, dose: 200.0 mg/kg/injection, schedule: Q04DX003 (ip), vehicle: saline with Tween-80
[3] = endpoint: mean survival time, dose: 400.0 mg/kg/injection, schedule: Q04DX003 (ip), vehicle: saline with Tween-80
[4] = endpoint: mean survival time, dose: 100.0 mg/kg/injection, schedule: Q01DX009 (ip), vehicle: saline with Tween-80
[5] = endpoint: mean survival time, dose: 400.0 mg/kg/injection, schedule: Q01DX009 (ip), vehicle: saline with Tween-80
[6] = endpoint: mean survival time, dose: 200.0 mg/kg/injection, schedule: Q01DX009 (ip), vehicle: saline with Tween-80
[7] = endpoint: mean survival time, dose: 12.5 mg/kg/injection, schedule: Q01DX005 (ip), vehicle: water
[8] = endpoint: mean survival time, dose: 25.0 mg/kg/injection, schedule: Q01DX005 (ip), vehicle: water
[9] = endpoint: mean survival time, dose: 50.0 mg/kg/injection, schedule: Q01DX005 (ip), vehicle: water
[10] = endpoint: mean survival time, dose: 100.0 mg/kg/injection, schedule: Q01DX005 (ip), vehicle: water
[11] = endpoint: mean survival time, dose: 200.0 mg/kg/injection, schedule: Q01DX005 (ip), vehicle: water
[12] = endpoint: mean survival time, dose: 25.0 mg/kg/injection, schedule: Q04DX003 (ip), vehicle: saline with Tween-80
[13] = endpoint: mean survival time, dose: 50.0 mg/kg/injection, schedule: Q04DX003 (ip), vehicle: saline with Tween-80
[14] = endpoint: mean survival time, dose: 100.0 mg/kg/injection, schedule: Q04DX003 (ip), vehicle: Klucel (hydroxypropylcellulose) (HPC)
[15] = endpoint: mean survival time, dose: 200.0 mg/kg/injection, schedule: Q04DX003 (ip), vehicle: Klucel (hydroxypropylcellulose) (HPC)
[16] = endpoint: mean survival time, dose: 400.0 mg/kg/injection, schedule: Q04DX003 (ip), vehicle: Klucel (hydroxypropylcellulose) (HPC)

Measured: T/C

CC1(C)COC(CCc2ccccc2)=N1
inactive: endpoint: mean survival time, dose: 100.0 mg/kg/injection, schedule: Q04DX002 (ip), vehicle: saline with Tween-80 108 % of control | [1] 104 % of control | endpoint: mean survival time, dose: 200.0 mg/kg/injection, schedule: Q04DX002 (ip), vehicle: saline with Tween-80 101 % of control | [2] 93 % of control | endpoint: mean survival time, dose: 400.0 mg/kg/injection, schedule: Q04DX002 (ip), vehicle: saline with Tween-80 101 % of control | [3] 86 % of control

COC(=O)C1(C)CCCC2(C)C1CCC13OCC(CC21)C(=C(C)C)C3OC(C)=O (stereo unspecified)
inactive: [1] 100 % of control | [2] 95 % of control | [3] 100 % of control

O=Nc1c(-c2ccccc2)n(O)[n+]([O-])c1-c1ccccc1
inactive: endpoint: mean survival time, dose: 50.0 mg/kg/injection, schedule: Q01DX009 (ip), vehicle: Klucel (hydroxypropylcellulose) (HPC) 89 % of control | endpoint: mean survival time, dose: 100.0 mg/kg/injection, schedule: Q01DX009 (ip), vehicle: Klucel (hydroxypropylcellulose) (HPC) 89 % of control | endpoint: mean survival time, dose: 200.0 mg/kg/injection, schedule: Q01DX009 (ip), vehicle: Klucel (hydroxypropylcellulose) (HPC) 97 % of control

Cc1cn(C2CC3O[P@@](=S)(Nc4ccccc4)OCC3O2)c(=O)[nH]c1=O (stereo partly specified)
inactive: endpoint: median survival time, dose: 11.5 mg/kg/injection, schedule: Q01DX005 (ip), vehicle: saline with Tween-80 108 % of control | endpoint: median survival time, dose: 23.0 mg/kg/injection, schedule: Q01DX005 (ip), vehicle: saline with Tween-80 103 % of control | endpoint: median survival time, dose: 46.0 mg/kg/injection, schedule: Q01DX005 (ip), vehicle: saline with Tween-80 98 % of control

C=C(C)C12OC3(CCCCCCCCC)OC1C1C4OC4(COC(=O)CCCCCCCCCCCCCCC)C(O)C4(O)C(=O)C(C)=CC4C1(O3)C(C)C2OC(=O)c1ccccc1 (stereo unspecified)
inactive: endpoint: mean survival time, dose: 5.0 micrograms/kg/injection, schedule: Q01DX009 (ip), vehicle: saline + alcohol 97 % of control | endpoint: mean survival time, dose: 10.0 micrograms/kg/injection, schedule: Q01DX009 (ip), vehicle: saline + alcohol 117 % of control | endpoint: mean survival time, dose: 20.0 micrograms/kg/injection, schedule: Q01DX009 (ip), vehicle: saline + alcohol 105 % of control | endpoint: mean survival time, dose: 40.0 micrograms/kg/injection, schedule: Q01DX009 (ip), vehicle: saline + alcohol 112 % of control

Nc1nc(=O)n(CCCOc2cccc(NC(=O)c3cccc(S(=O)(=O)F)c3)c2)cc1-c1ccc(Cl)c(Cl)c1
inactive: endpoint: mean survival time, dose: 100.0 mg/kg/injection, schedule: Q01DX001 (ip), vehicle: saline with Tween-80 87 % of control | endpoint: mean survival time, dose: 200.0 mg/kg/injection, schedule: Q01DX001 (ip), vehicle: saline with Tween-80 90 % of control | endpoint: mean survival time, dose: 400.0 mg/kg/injection, schedule: Q01DX001 (ip), vehicle: saline with Tween-80 87 % of control

C1=CC2C3=CC1C=CC32 (stereo unspecified)
inactive: endpoint: mean survival time, dose: 100.0 mg/kg/injection, schedule: Q01DX009 (ip), vehicle: acetone 92 % of control | endpoint: mean survival time, dose: 200.0 mg/kg/injection, schedule: Q01DX009 (ip), vehicle: acetone 95 % of control

C(=Nc1ccc(-c2ccccc2)cc1)c1ccccc1
inactive: [4] 87 % of control | [5] 91 % of control

COc1ccc(/C=N\NC(=O)c2ccccc2)cc1
inactive: [4] 95 % of control | [6] 95 % of control | [5] 86 % of control

O=C(OCC1OC(n2ccn(C3OC(COC(=O)c4ccccc4)C(OC(=O)c4ccccc4)C3OC(=O)c3ccccc3)c2=S)C(OC(=O)c2ccccc2)C1OC(=O)c1ccccc1)c1ccccc1 (stereo unspecified)
inactive: [7] 102 % of control | [8] 104 % of control | [9] 94 % of control | [10] 94 % of control | [11] 94 % of control

Cc1cc(F)ccc1[NH-].Cc1cc(F)ccc1[NH-].[Cl][Pt+2][Cl]
inactive: endpoint: mean survival time, dose: 12.5 mg/kg/injection, schedule: Q04DX003 (ip), vehicle: saline with Tween-80 106 % of control | [12] 101 % of control | [13] 91 % of control | [1] 95 % of control | [2] 89 % of control

O=C1C=CC(=O)N1Cc1ccco1
inactive: endpoint: mean survival time, dose: 100.0 mg/kg/injection, schedule: Q04DX003 (ip), vehicle: saline 102 % of control | endpoint: mean survival time, dose: 200.0 mg/kg/injection, schedule: Q04DX003 (ip), vehicle: saline 95 % of control | endpoint: mean survival time, dose: 400.0 mg/kg/injection, schedule: Q04DX003 (ip), vehicle: saline 90 % of control

Clc1ccc(N=Nc2ccc(Cl)cc2)cc1
inactive: [12] 95 % of control | [13] 95 % of control | [1] 92 % of control

CC(=O)OC1CC2(O)C(CCC3(C)C(c4ccc(=O)oc4)CCC32O)C2(C)C1=CC(O)C1OC12 (stereo unspecified)
inactive: endpoint: mean survival time, dose: 0.13 mg/kg/injection, schedule: Q01DX009 (sc), vehicle: steriod suspending solution 100 % of control | endpoint: mean survival time, dose: 0.25 mg/kg/injection, schedule: Q01DX009 (sc), vehicle: steriod suspending solution 97 % of control | endpoint: mean survival time, dose: 0.5 mg/kg/injection, schedule: Q01DX009 (sc), vehicle: steriod suspending solution 100 % of control | endpoint: mean survival time, dose: 1.0 mg/kg/injection, schedule: Q01DX009 (sc), vehicle: steriod suspending solution 89 % of control

CCCCCCCCCCCCCCCC[N+]1(CC)CC[N+](CC)(CCCCCCCCCCCCCCCC)CC1 (stereo unspecified)
inactive: [14] 96 % of control | [15] 90 % of control | [16] 100 % of control

N#CC(/C=C/c1ccccc1)Nc1ccccc1CO (stereo unspecified)
inactive: [1] 97 % of control | [2] 105 % of control | [3] 117 % of control

Fc1ccc2c(c1)CC(CBr)O2 (stereo unspecified)
inactive: [4] 100 % of control | [6] 105 % of control | [5] 96 % of control

O=[N+]([O-])O.O=[N+]([O-])O.[Cu].c1ccc(CN2CCN(Cc3ccccc3)CCN(Cc3ccccc3)CCN(Cc3ccccc3)CC2)cc1
inactive: endpoint: mean survival time, dose: 6.25 mg/kg/injection, schedule: Q01DX001 (ip), vehicle: Klucel (hydroxypropylcellulose) (HPC) 91 % of control | endpoint: mean survival time, dose: 12.5 mg/kg/injection, schedule: Q01DX001 (ip), vehicle: Klucel (hydroxypropylcellulose) (HPC) 94 % of control | endpoint: mean survival time, dose: 25.0 mg/kg/injection, schedule: Q01DX001 (ip), vehicle: Klucel (hydroxypropylcellulose) (HPC) 108 % of control | endpoint: mean survival time, dose: 50.0 mg/kg/injection, schedule: Q01DX001 (ip), vehicle: Klucel (hydroxypropylcellulose) (HPC) 100 % of control

BrCC(Br)c1ccccc1 (stereo unspecified)
inactive: [1] 100 % of control | [2] 100 % of control | [3] 96 % of control

O=c1[nH]c(=S)ccn1C1OC(COP(=O)(O)O)C(O)C1O (stereo unspecified)
inactive: [7] 98 % of control | [8] 103 % of control | [9] 103 % of control | [10] 103 % of control | [11] 103 % of control

Cn1c(N)nc2nc[nH]c2c1=S
inactive: endpoint: mean survival time, dose: 16.0 mg/kg/injection, schedule: Q01DX008 (iv), vehicle: saline 100 % of control | endpoint: mean survival time, dose: 32.0 mg/kg/injection, schedule: Q01DX008 (iv), vehicle: saline 98 % of control | endpoint: mean survival time, dose: 64.0 mg/kg/injection, schedule: Q01DX008 (iv), vehicle: saline 105 % of control

CC(=O)Nc1ccc(C)c(Cl)c1
inactive: [4] 96 % of control | [1] 101 % of control | [6] 94 % of control | [2] 103 % of control | [5] 88 % of control | [3] 101 % of control

C#CCOc1c(C(=O)OCC)cnc2c1c(C)nn2CC
inactive: [14] 101 % of control | [15] 97 % of control | [16] 101 % of control

CCCCOP(=O)(NCCOC)OCCCC
inactive: [1] 101 % of control | [2] 100 % of control | [3] 103 % of control

CCCCCCCCC/C(=N\Nc1ccc([N+](=O)[O-])cc1[N+](=O)[O-])c1ccccc1
inactive: [4] 97 % of control | [6] 87 % of control | [5] 94 % of control

Cc1cc2ccc(OC(=O)c3ccc(N=C(N)N)cc3)cc2oc1=O
inactive: [4] 91 % of control | [6] 91 % of control | [5] 86 % of control
